# Patent US10300071B2, “Compositions and methods for inhibition of mycobacteria” (priority 2014, dated 2019)
# Where two headings read alike, the source gives them in different places.
# Columns and labels:
# Mtb AccD6 = Mtb AccD6 (Mycobacterium tuberculosis, UniProt P9WQH5); assay: biochemical; format: biochemical; settings: for IC50: 300 μM malonyl-CoA, inhibitor 10 μM to 2000 μM; for Mtb AccD6 inhibition: preliminary studies of commercially available herbicides
# Mtb strain mc^2-7000 = assay: microbe, parasite or virus in culture; format: cell-based, Mycobacterium tuberculosis; settings: for MIC: 6 days incubation at 37° C., resazurin, read on the 7th day; for whole Mycobacterium tuberculosis cell inhibition: preliminary studies of commercially available herbicides
# [1] = Mycobacterium tuberculosis, 144 h, read-out: MIC
# [2] = 20 uM, pH 8.0, read-out: inhibition at 20 uM- pH 8.0
# [3] = 20 uM, pH 8.5, read-out: inhibition at 20 uM- pH 8.5
# Sequence of Mtb AccD6 (P9WQH5 whole entry, looked up): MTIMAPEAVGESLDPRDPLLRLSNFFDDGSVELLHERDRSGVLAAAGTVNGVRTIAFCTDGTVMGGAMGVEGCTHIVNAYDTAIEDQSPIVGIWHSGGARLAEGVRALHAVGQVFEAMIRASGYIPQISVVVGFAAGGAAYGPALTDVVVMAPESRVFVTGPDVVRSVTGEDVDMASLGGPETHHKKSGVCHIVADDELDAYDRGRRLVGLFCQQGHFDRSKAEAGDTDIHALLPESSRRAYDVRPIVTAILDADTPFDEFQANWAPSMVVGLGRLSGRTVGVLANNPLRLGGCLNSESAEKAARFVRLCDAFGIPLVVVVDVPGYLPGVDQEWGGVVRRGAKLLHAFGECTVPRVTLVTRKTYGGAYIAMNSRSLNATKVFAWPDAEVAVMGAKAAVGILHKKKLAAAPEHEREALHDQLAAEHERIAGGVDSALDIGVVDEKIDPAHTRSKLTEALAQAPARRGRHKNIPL
Compound,IC50 (Mtb AccD6; read-out: IC50),MIC (Mtb strain mc^2-7000; [1]),further results
"CC(C)NC(=O)Cc1ccc(Oc2nc3cc(F)c(F)cc3s2)cc1O [NZ-407, 2-{4-[(5,6-difluoro-1,3-benzothiazol-2-yl)oxy]-2-hydroxyphenyl}-N-(propan-2-yl)acetamide]",110 nM,11.7 µM,
"CC(Oc1ccc(Oc2ncc(C(F)(F)F)cc2Cl)cc1)C(=O)O (racemic) [haloxyfop, (RS)-2-{4-[3-chloro-5-(trifluoromethyl)-2-pyridyloxy]phenoxy}propionic acid, reference compound]",,,whole Mycobacterium tuberculosis cell inhibition (Mtb strain mc^2-7000): none exhibited whole Mycobacterium tuberculosis cell inhibition
"N#CCOc1ccc(Oc2cnc3cc(Cl)ccc3n2)cc1 [NZ-263, 2-{4-[(6-chloroquinoxalin-2-yl)oxy]phenoxy}acetonitrile]",7800 nM,> 50 µM,
"Clc1ccc2nc(Oc3ccc(OCc4ncc[nH]4)cc3)cnc2c1 [NZ-273, 6-chloro-2-[4-(1H-imidazol-2-ylmethoxy)phenoxy]quinoxaline]",7900 nM,> 25 µM,
"Cc1cccc(Oc2nc3ccc(Cl)cc3s2)c1 [NZ-291, 6-chloro-2-(3-methylphenoxy)-1,3-benzothiazole]",,25 µM,inhibition at 20 µM (Mtb AccD6; read-out: inhibition at 20 uM): 30%
"C=CCO/N=C(\CCC)C1=C(O)C(C(=O)OC)C(C)(C)CC1=O (stereo not shown) [alloxydim, reference compound]",,,Mtb AccD6 inhibition (Mtb AccD6): only haloxyfop exhibited Mtb AccD6 inhibition; whole Mycobacterium tuberculosis cell inhibition (Mtb strain mc^2-7000): none exhibited whole Mycobacterium tuberculosis cell inhibition
"O=C(O)CCc1ccc(Oc2nc3ccc(Cl)cc3s2)cc1 [NZ-282, 3-{4-[(6-chloro-1,3-benzothiazol-2-yl)oxy]phenyl}propanoic acid]",,,inhibition at 20 µM (Mtb AccD6; read-out: inhibition at 20 uM): 40%; MIC (Mtb strain mc^2-7000): Not Active
"CN1CCN(C(=O)Cc2ccc(Oc3nc4cc(F)c(F)cc4s3)cc2)CC1 [NZ-409, 2-{4-[(5,6-difluoro-1,3-benzothiazol-2-yl)oxy]phenyl}-1-(4-methylpiperazin-1-yl)ethan-1-one]",660 nM,,
"COC(=O)COc1ccc(Oc2cnc3cc(Cl)ccc3n2)cc1 [NZ-256, methyl 2-{4-[(6-chloroquinoxalin-2-yl)oxy]phenoxy}acetate]",,1.5 µM,
"O=C(COc1ccc(Oc2cnc3cc(Cl)ccc3n2)cc1)N1CCCCC1 [NZ-265, 2-{4-[(6-chloroquinoxalin-2-yl)oxy]phenoxy}-1-(piperidin-1-yl)ethan-1-one]",570 nM,3 µM,
"COC(=O)c1ccc(Oc2nc3ccc(Cl)cc3s2)cc1 [NZ-285, methyl 4-[(6-chloro-1,3-benzothiazol-2-yl)oxy]benzoate]",,12 µM,IC50 (Mtb AccD6): Not Active
"CCOC(=O)[C@@H](C)Oc1ccc(Oc2nc3ccc(Br)cc3s2)cc1 [NZ-250, ethyl (2R)-2-{4-[(6-bromo-1,3-benzothiazol-2-yl)oxy]phenoxy}propanoate]",,3.12 µM,
"O=C(O)COc1ccc(Oc2cnc3cc(Cl)ccc3n2)cc1 [NZ-257, 2-{4-[(6-chloroquinoxalin-2-yl)oxy]phenoxy}acetic acid]",1500 to 1900 nM,,
"CC(Oc1ccc(Oc2ccc(Cl)cc2Cl)cc1)C(=O)O (stereo not shown) [diclofop, reference compound]",,,Mtb AccD6 inhibition (Mtb AccD6): only haloxyfop exhibited Mtb AccD6 inhibition; whole Mycobacterium tuberculosis cell inhibition (Mtb strain mc^2-7000): none exhibited whole Mycobacterium tuberculosis cell inhibition
"CC(C)NC(=O)Nc1ccc(Oc2nc3ccc(Cl)cc3s2)nn1 [WuXi-N7, 1-{6-[(6-chloro-1,3-benzothiazol-2-yl)oxy]pyridazin-3-yl}-3-(propan-2-yl)urea]",,,inhibition at 20 µM (Mtb AccD6; read-out: inhibition at 20 uM): 18%
"CC(C)NC(=O)Nc1ccc(Oc2nc3ccc(Cl)cc3s2)nc1 [WuXi-N6, 1-{6-[(6-chloro-1,3-benzothiazol-2-yl)oxy]pyridin-3-yl}-3-(propan-2-yl)urea]",,,inhibition at 20 µM (Mtb AccD6; [2]): 11%; inhibition at 20 µM (Mtb AccD6; [3]): 17%
"CN(O)C(=O)COc1ccc(Oc2cnc3cc(Cl)ccc3n2)cc1 [NZ-279, 2-{4-[(6-chloroquinoxalin-2-yl)oxy]phenoxy}-N-hydroxy-N-methylacetamide]",800 nM,> 50 µM,
"CNC(=O)C(C)c1ccc(Oc2nc3ccc(F)cc3s2)cc1O (stereo not shown) [NZ-408, 2-{4-[(6-fluoro-1,3-benzothiazol-2-yl)oxy]-2-hydroxyphenyl}-N-methylpropanamide]",210 nM,6.5 µM,
"CCOC(COc1ccc(Oc2cnc3cc(Cl)ccc3n2)cc1)OCC [NZ-272, 6-chloro-2-[4-(2,2-diethoxyethoxy)phenoxy]quinoxaline]",5800 nM,> 12.5 µM,
"Clc1ccc2nc(Oc3ccc(OCc4nnn[nH]4)cc3)cnc2c1 [NZ-268, 6-chloro-2-[4-(1H-1,2,3,4-tetrazol-5-ylmethoxy)phenoxy]quinoxaline]",1700 nM,> 12.5 µM,
"CONC(=O)CN1CCC(Oc2nc3ccc(Cl)cc3s2)CC1 [WUXI-N4, 2-{4-[(6-chloro-1,3-benzothiazol-2-yl)oxy]piperidin-1-yl}-N-methoxyacetamide]",,,inhibition at 20 uM (Mtb AccD6; 20 uM): No inhibition at 20 uM
"CONC(=O)CCN1CCC(Oc2nc3ccc(Cl)cc3s2)CC1 [WUXI-N5, 3-{4-[(6-chloro-1,3-benzothiazol-2-yl)oxy]piperidin-1-yl}-N-methoxypropanamide]",,,inhibition at 20 uM (Mtb AccD6; 20 uM): No inhibition at 20 uM

Compound,IC50 (Mtb AccD6; read-out: IC50),MIC (Mtb strain mc^2-7000; [1]),further results
"COC(=O)Cc1ccc(Oc2nc3ccc(Cl)cc3o2)cc1 [NZ-302, methyl 2-{4-[(6-chloro-1,3-benzoxazol-2-yl)oxy]phenyl}acetate]",,3 µM,inhibition at 20 µM (Mtb AccD6; read-out: inhibition at 20 uM): 50%
"CC(C)NC(=O)Cc1ccc(Oc2nc3cc(F)c(F)cc3s2)cc1 [NZ-403, 2-{4-[(5,6-difluoro-1,3-benzothiazol-2-yl)oxy]phenyl}-N-(propan-2-yl)acetamide]",160 nM,1.24 µM,
"CC(C)(C)OC(=O)NCC(=O)Nc1ccc(Oc2nc3ccc(F)cc3s2)cc1 [NZ-415, tert-butyl N-[({4-[(6-fluoro-1,3-benzothiazol-2-yl)oxy]phenyl}carbamoyl)methyl]carbamate]",20000 nM,,
"Nc1ccc(Oc2nc3ccc(F)cc3s2)cc1 [NZ-413, 4-[(6-fluoro-1,3-benzothiazol-2-yl)oxy]aniline]",14000 nM,,
"CC(Oc1ccc(Oc2ccc(C(F)(F)F)cn2)cc1)C(=O)O (stereo not shown) [fluazifop, reference compound]",,,Mtb AccD6 inhibition (Mtb AccD6): only haloxyfop exhibited Mtb AccD6 inhibition; whole Mycobacterium tuberculosis cell inhibition (Mtb strain mc^2-7000): none exhibited whole Mycobacterium tuberculosis cell inhibition
"O=C(COc1ccc(Oc2cnc3cc(Cl)ccc3n2)cc1)NS(=O)(=O)C(F)(F)F [NZ-275, 2-{4-[(6-chloroquinoxalin-2-yl)oxy]phenoxy}-N-trifluoromethanesulfonylacetamide]",3800 nM,12.5 µM,
"C[C@@H](Oc1ccc(Oc2nc3ccccc3s2)cc1)C(=O)O [NZ-254, (2R)-2-[4-(1,3-benzothiazol-2-yloxy)phenoxy]propanoic acid]",> 15000 nM,,
"NCC(=O)Nc1ccc(Oc2nc3ccc(F)cc3s2)cc1 [NZ-417, 2-amino-N-{4-[(6-fluoro-1,3-benzothiazol-2-yl)oxy]phenyl}acetamide]",,,inhibition at 20 µM (Mtb AccD6; read-out: inhibition at 20 uM): 10%
"CCOC(=O)[C@@H](C)Oc1ccc(Oc2nc3ccc(Cl)cc3s2)cc1 [NZ-246, ethyl (2R)-2-{4-[(6-chloro-1,3-benzothiazol-2-yl)oxy]phenoxy}propanoate]",,3 µM,
"CC(O)COc1ccc(Oc2cnc3cc(Cl)ccc3n2)cc1 (stereo not shown) [NZ-264, 1-{4-[(6-chloroquinoxalin-2-yl)oxy]phenoxy}propan-2-ol]",3400 nM,> 12.5 µM,
"CCCC(=NOCC)C1=C(O)CC(C2CCCSC2)CC1=O (stereo not shown) [cycloxydim, reference compound]",,,Mtb AccD6 inhibition (Mtb AccD6): only haloxyfop exhibited Mtb AccD6 inhibition; whole Mycobacterium tuberculosis cell inhibition (Mtb strain mc^2-7000): none exhibited whole Mycobacterium tuberculosis cell inhibition
"C[C@@H](Oc1ccc(Oc2nc3ccc(Br)cc3s2)cc1)C(=O)O [NZ-253, (2R)-2-{4-[(6-bromo-1,3-benzothiazol-2-yl)oxy]phenoxy}propanoic acid]",> 15000 nM,,
"CC(C)NC(=O)Nc1ccc(Oc2nc3ccc(Cl)cc3s2)cn1 [WuXi-N8, 1-{5-[(6-chloro-1,3-benzothiazol-2-yl)oxy]pyridin-2-yl}-3-(propan-2-yl)urea]",,,inhibition at 20 µM (Mtb AccD6; [2]): 40%; inhibition at 20 µM (Mtb AccD6; [3]): 47%
"CCOC(=O)[C@@H](C)Oc1ccc(Oc2nc3ccc([N+](=O)[O-])cc3s2)cc1 [NZ-260, ethyl (2R)-2-{4-[(6-nitro-1,3-benzothiazol-2-yl)oxy]phenoxy}propanoate]",,0.19 to 2.3 µM,
"CC(C)(C)OC(=O)Nc1ccc(Oc2nc3ccc(F)cc3s2)cc1 [NZ-412, terl-butyl N-{4-[(6-fluoro-1,3-benzothiazol-2-yl)oxy]phenyl}carbamate]",,,inhibition at 20 µM (Mtb AccD6; read-out: inhibition at 20 uM): 17%
"C[C@@H](Oc1ccc(Oc2nc3ccc(F)cc3s2)cc1)C(=O)O [NZ-255, (2R)-2-{4-[(6-fluoro-1,3-benzothiazol-2-yl)oxy]phenoxy}propanoic acid]",1200 nM,,
"CNC(=O)Cc1ccc(Oc2nc3ccc(F)cc3s2)cc1F [NZ-410, 2-{2-fluoro-4-[(6-fluoro-1,3-benzothiazol-2-yl)oxy]phenyl}-N-methylacetamide]",380 nM,,
"NCCC(=O)Nc1ccc(Oc2nc3ccc(F)cc3s2)cc1 [NZ-416, 3-amino-N-{4-[(6-fluoro-1,3-benzothiazol-2-yl)oxy]phenyl}propanamide]",,,inhibition at 20 µM (Mtb AccD6; read-out: inhibition at 20 uM): 20%
"C[C@@H](Oc1ccc(Oc2nc3ccc([N+](=O)[O-])cc3s2)cc1)C(=O)O [NZ-261, (2R)-2-{4-[(6-nitro-1,3-benzothiazol-2-yl)oxy]phenoxy}propanoic acid]",1800 nM,,
"CNC(=O)Cc1ccc(Oc2nc3cc(F)c(F)cc3s2)cc1F [NZ-411, 2-{4-[(5,6-difluoro-1,3-benzothiazol-2-yl)oxy]-2-fluorophenyl}-N-methylacetamide]",240 nM,,
"C[C@@H](Oc1ccc(Oc2nc3ccc(Cl)cc3s2)cc1)C(=O)O [NZ-247, (2R)-2-{4-[(6-chloro-1,3-benzothiazol-2-yl)oxy]phenoxy}propanoic acid]",2500 nM,,
